Measured values as given in the METLIN SMRT retention time set (Domingo-Almenara et al. 2019).

Experiment: gradient 5% acetonitrile 3 min, to 50% in 2 min, to 85% in 15 min, held 3 min, 100 µL/min
Details: column: Zorbax Extend-C18 2.1 x 50 mm; eluents: water / acetonitrile, 0.1% formic acid
Method in brief: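 Data were gathered over 3 months by HPLC coupled to a quadrupole time-of-flight mass spectrometer, operated in positive and negative ionization mode. Mixtures of ~100 pure standards ran on a Zorbax Extend-C18 column (2.1 × 50 mm, 1.8 μm) at 100 μL/min, with water and acetonitrile each containing 0.1% formic acid and dead and dwell volumes of 40 μL and 900 μL. Retention time was read from adduct peaks picked by computer and checked manually.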

COc1ccccc1N1CCN(C[C@@H](C(=O)NC(C)(C)C)c2ccccc2)CC1
RP-LC retention time: 812 s

Cc1c(C(=O)N2CCCCC2)cnn1-c1ccc(-c2nc(C3CC3)no2)cn1
RP-LC retention time: 1010 s

CCCS(=O)(=O)c1nc2ccc(NS(=O)(=O)c3cc(F)ccc3F)cc2s1
RP-LC retention time: 918 s

O=C(c1n[nH]c2c1CCCC2)N1CCN(c2ccc(=O)n(-c3ccc(Cl)cc3)n2)CC1
RP-LC retention time: 758 s

COc1ccc(CNC(=O)Cn2c(C(F)(F)F)nc3cc4c(cc32)OCCO4)cc1OC
RP-LC retention time: 764 s

COC(=O)c1ccccc1Nc1c(-c2ccc(C)cc2)nc2cnccn12
RP-LC retention time: 875 s

Cc1nc(-c2noc(-c3ccncc3)n2)cn1CC(=O)NC1CCCCC1
RP-LC retention time: 896 s

COCCNC(=O)Cn1c(=O)n(-c2ccc(C)cc2)c2ncccc21
RP-LC retention time: 656 s

O=C(C1CCN(S(=O)(=O)c2ccc3[nH]c(=O)ccc3c2)CC1)N1CCOCC1
RP-LC retention time: 613 s

Cn1nccc1-c1cccc(-c2noc(CNS(=O)(=O)c3ccc(Cl)cc3)n2)c1
RP-LC retention time: 902 s

CC(=O)N1CCN(S(=O)(=O)c2ccc(C(=O)O)cc2)CC1
RP-LC retention time: 591 s

Cc1ccccc1-c1noc(Cn2c(=O)n(Cc3ccccc3Cl)c(=O)c3sccc32)n1
RP-LC retention time: 1200 s

Cc1cccc(N2CCN(Cc3nc(-c4ccc(N5CCCC(C)C5)nc4)no3)CC2)c1 (stereo not drawn)
RP-LC retention time: 1100 s

CN(CCNC(=O)C1CCc2nc(N3CCOCC3)ncc2C1)C1CCCCC1 (stereo not drawn)
RP-LC retention time: 586 s

CN(C)c1ccc(/C=C2\CCc3ccccc3C2=O)cc1Br
RP-LC retention time: 1260 s

COc1cc(NC(=O)C2CCCN2S(=O)(=O)c2ccc3c(c2)CC(C)N3C(C)=O)cc(OC)c1 (stereo not drawn)
RP-LC retention time: 844 s

O=C(Nc1ccc(-c2nnc3n2CCCC3)cc1)c1ccsc1
RP-LC retention time: 631 s

Cc1ccc(NS(=O)(=O)c2cc3c(=O)n(C)ncn3c2)cc1F
RP-LC retention time: 841 s

COc1ccc(-n2nc(N3CCCC(C(=O)NC(C)CCc4ccccc4)C3)ccc2=O)cc1 (stereo not drawn)
RP-LC retention time: 884 s

COc1ccc(S(=O)(=O)N2CCCC2C(N)=O)cc1 (stereo not drawn)
RP-LC retention time: 593 s

NC(=O)C1CCN(C(=O)c2ccc3c(c2)CCN3S(=O)(=O)c2ccc(Cl)cc2)CC1
RP-LC retention time: 711 s

Cc1cc(C)c(S(=O)(=O)N2CCC3(CC2)NCCN=C3NCc2ccccc2C)c(C)c1
RP-LC retention time: 854 s

Cc1cc(NC(=O)c2csc(-c3ccc(N4CCCC4)nc3)n2)ccc1F
RP-LC retention time: 795 s

Cc1ccc(-n2ccn3c(CCC(=O)NCCc4c[nH]c5ccccc45)nnc3c2=O)cc1C
RP-LC retention time: 757 s

CN1c2cc(F)ccc2C(=O)NC12CCN(C(=O)Cc1ccccc1)CC2
RP-LC retention time: 779 s

CN(C)c1ccc(-c2nc3cnccn3c2NC2CCCC2)cc1
RP-LC retention time: 764 s

CNC(=O)Nc1ccc(C2(C(=O)N3CCN(c4ccccc4F)CC3)CCC2)cc1
RP-LC retention time: 799 s

Cc1ccc2nc(C)cc(C(=O)NC(C)C)c2c1
RP-LC retention time: 595 s

Cc1ccc(CNC(=O)N2CCC3(CC2)NC(=O)c2ccc(Cl)cc2N3C)cc1
RP-LC retention time: 843 s

Cc1cc2c(c(=O)n(-c3ccc(F)cc3)c(=O)n2CC(=O)Nc2cccc(C#N)c2)n1C
RP-LC retention time: 824 s

CC(=O)c1ccn(S(=O)(=O)c2ccc(C)cc2)c1
RP-LC retention time: 804 s

Cc1ccc(C)c(NC(=O)N2CC(c3nc(C)no3)C3(CCOCC3)C2)c1 (stereo not drawn)
RP-LC retention time: 693 s

CCc1cc(C(=O)Nc2ccc(OC)c(OC)c2)nc2cc(-c3ccco3)nn12
RP-LC retention time: 1030 s

CNC(=O)c1cccc(-c2noc(C)n2)c1
RP-LC retention time: 644 s

CCCNc1cc(N2CCC(CCC(=O)NCCN3CCc4ccccc4C3)CC2)ncn1
RP-LC retention time: 574 s

Clc1ccc(Cc2nc3nc4c(c(N5CCN(c6ccccn6)CC5)n3n2)CCCC4)cc1
RP-LC retention time: 718 s

Cc1nc(CCNC(=O)[C@H]2CCCN2C(=O)c2cccc(F)c2)cs1
RP-LC retention time: 642 s

Cc1ccc(CNC(=O)NCc2c(C)nn(-c3ccccc3)c2-n2cccc2)cc1
RP-LC retention time: 972 s

CCCn1cc(C(=O)NCCC(C)C)c2nn(-c3ccccc3)c(=O)c-2c1
RP-LC retention time: 968 s

Cn1nccc1-c1cccc(-c2noc(-c3ccoc3)n2)c1
RP-LC retention time: 938 s

CCCS(=O)(=O)NCc1ccc2c(c1)CCN2C(=O)c1cccc(C)c1
RP-LC retention time: 899 s

CC1CCN(c2cncnc2-n2cc(NC(=O)Cc3cccs3)cn2)CC1
RP-LC retention time: 740 s

O=C(Cn1cnc2c(sc3nc(-c4ccccc4)ccc32)c1=O)NCc1ccc(Cl)cc1
RP-LC retention time: 1070 s

Cc1cc(C)n2c(Nc3ccc4c(c3)OCCO4)c(-c3ccc(Cl)cc3)nc2n1
RP-LC retention time: 746 s

CCCCN(CC)C(=O)c1cc2c(=O)oc3ccccc3c2n1C
RP-LC retention time: 910 s

CCNC(=O)C1CCCN(c2nc3ncn(CC(=O)Nc4cccc(F)c4)c(=O)c3s2)C1 (stereo not drawn)
RP-LC retention time: 676 s

O=c1ccc(-c2ccc(Cl)cc2)nn1CCc1nc(-c2cccs2)no1
RP-LC retention time: 1000 s

O=C(Nc1ccc(F)c(Cl)c1)N1CCc2nc(-c3ccccc3)ncc2C1
RP-LC retention time: 1010 s

N#Cc1ccc(C(=O)N2CCCC2c2nc(-c3ccccc3)no2)cc1 (stereo not drawn)
RP-LC retention time: 925 s

Cc1ccc(NC(=O)C2CCCN2S(=O)(=O)c2cc3c(cc2Cl)NC(=O)CO3)cc1C (stereo not drawn)
RP-LC retention time: 832 s

CC(C)n1cc(S(=O)(=O)Nc2ccc(F)cc2Cl)c2cccnc21
RP-LC retention time: 989 s

CCN(CC)c1ccc(NC(=O)Cn2cnc3c(sc4nc(-c5ccccc5)ccc43)c2=O)c(C)c1
RP-LC retention time: 723 s

CCOc1ccc(C(=O)Nc2ccc3c(c2)Sc2ncccc2C(=O)N3C(C)C)cc1
RP-LC retention time: 972 s

Cc1ccsc1C(=O)N1CCN(c2ccc(-c3nc(C)c(C)s3)cn2)CC1
RP-LC retention time: 1120 s

COc1ccc(C2(CNS(=O)(=O)c3ccc4c(c3)OCCO4)CCOCC2)cc1
RP-LC retention time: 785 s

Cn1nccc1-c1cccc(-c2noc(CNC(=O)c3ccccc3)n2)c1
RP-LC retention time: 798 s

CNC(=O)c1sc2nc(-c3ccc(F)cc3)c(NCCOC)n2c1C
RP-LC retention time: 741 s

O=C(Cn1cccc(-c2nc(-c3ccc(F)cc3)no2)c1=O)NC1CCCC1
RP-LC retention time: 797 s

CCc1nc(N2CCC(C(=O)NCc3ccc(F)c(Cl)c3)CC2)c2c(C)scc2n1
RP-LC retention time: 1100 s

COC(=O)c1cc(S(=O)(=O)N2CCCC2C(=O)NCc2ccc(C)cc2)cn1C (stereo not drawn)
RP-LC retention time: 939 s

COc1ccc(S(=O)(=O)NC2CCc3nnc(C)n3CC2)cc1Cl (stereo not drawn)
RP-LC retention time: 641 s

Cc1nn(C)c(C)c1CCNC(=O)Nc1ccc(Br)cc1
RP-LC retention time: 674 s

C=CCN1C(=O)COc2ccc(-c3nc(NC(=O)c4ccccc4Cl)sc3C)cc21
RP-LC retention time: 1010 s

Cc1cc(-c2nnc(-c3ccc(F)cc3)o2)c(C)n1CC(=O)NCc1ccccn1
RP-LC retention time: 673 s

CN(C)CCNC(=O)C1CCN(c2cnc(N3CCSCC3)nc2)CC1
RP-LC retention time: 580 s

CCCCNC(=O)C1CCCN(c2nnc3ccc(Cl)cn23)C1 (stereo not drawn)
RP-LC retention time: 704 s

CC(C)OCCCNC(=O)C1CCN(c2ncnc3c2oc2ccccc23)CC1
RP-LC retention time: 662 s

CN(C)C(=O)c1cc2c(s1)CCC(C(=O)NCCc1ccccc1)C2 (stereo not drawn)
RP-LC retention time: 710 s

COc1ccc(CNC(=O)c2[nH]c3cc(C)sc3c2CN(C)C)c(OC)c1
RP-LC retention time: 691 s

Cc1cc(OCC(=O)NCc2ccc3c(c2)OCO3)nc(-c2ccc(F)cc2)n1
RP-LC retention time: 942 s

CCOC(=O)c1c(C)[nH]c(C(=O)N2CCC(CC(=O)NC3CCCCCC3)CC2)c1C
RP-LC retention time: 835 s

O=C(CC1COc2ccccc2NC1=O)Nc1ccc(F)c(Cl)c1 (stereo not drawn)
RP-LC retention time: 788 s

Cc1c(C(=O)O)nnn1-c1ccc(F)c(Cl)c1
RP-LC retention time: 726 s

CCCn1cc(S(=O)(=O)Nc2ccc(OC)c(OC)c2)c2cccnc21
RP-LC retention time: 876 s

Cn1c(=O)c2c(ncn2CC(=O)N2CCCn3nc(-c4ccc(C(F)(F)F)cc4)cc3C2)n(C)c1=O
RP-LC retention time: 763 s

Clc1ccc(Nc2nnc(Cc3ccncc3)c3ccccc23)cc1
RP-LC retention time: 599 s

Cc1noc(C2(NC(=O)Cc3ccccc3C)CCCCC2)n1
RP-LC retention time: 884 s

O=C(Nc1nc(-c2cc([N+](=O)[O-])cs2)cs1)c1coc2ccccc2c1=O
RP-LC retention time: 1110 s

Cc1sc2cc(C(=O)N3CCN(c4ccccc4F)CC3)[nH]c2c1CN1CCOCC1
RP-LC retention time: 704 s

O=C(NCCCN1CCCC1=O)c1csc(N2CCN(c3ccccc3)CC2)n1
RP-LC retention time: 781 s

CCc1cccc(N2C(=O)CN(S(C)(=O)=O)CC2(C)C(=O)NCc2ccc(C)cc2)c1 (stereo not drawn)
RP-LC retention time: 905 s

CCn1cnc(S(=O)(=O)N2CCC(C(=O)Nc3ccc(OC)cc3OC)CC2)c1
RP-LC retention time: 706 s

Cc1cccc(C2CCCN2C(=O)c2nn(C)cc2Cl)c1 (stereo not drawn)
RP-LC retention time: 849 s

Cc1cccc(N2CCN(c3ncc(S(=O)(=O)c4ccc(C)c(C)c4)c(N)n3)CC2)c1
RP-LC retention time: 1190 s

O=c1n(CCOc2ccc(F)cc2)nc2ccc(S(=O)(=O)N3CCCCC3)cn12
RP-LC retention time: 938 s

COc1cccc(CCC(=O)Nc2cnn(-c3ncc(N4CCCCC4)cn3)c2)c1
RP-LC retention time: 890 s

O=C(NCC1CCCCC1)c1cccc(CN2C(=O)C3CCCN3C(=O)c3ccccc32)c1 (stereo not drawn)
RP-LC retention time: 846 s

O=C(c1ccc2c(c1)CCCN2S(=O)(=O)c1ccccc1)N1CCCCC1
RP-LC retention time: 939 s
